Assay results taken from ChEMBL document CHEMBL1153534, “Design and synthesis of androgen receptor antagonists with bulky side chains for overcoming antiandrogen resistance” (J Med Chem, 2009).
The source made the active and inactive calls. The rule behind the calls is not given here.

What was measured:
Assay type in all cases: functional, cell-based
[1] = tested on: LNCaP; experiment: Cytotoxicity against human LNCAP cells after 72 hrs by MTT assay
[2] = tested on: CWR22R; experiment: Cytotoxicity against human 22Rv1 cells after 72 hrs by MTT assay; details: 22Rv1, 72 h
[3] = Cytotoxicity against human C4-2B cells after 72 hrs by MTT assay; details: LNCaP C4-2B
[4] = tested on: PC-3; experiment: Cytotoxicity against human PC3 cells after 72 hrs by MTT assay
[5] = Cytotoxicity against human MDA PCa 2b cells after 72 hrs by MTT assay
[6] = tested on: PC-3; experiment: Cytotoxicity against human PC3 cells at 150 uM after 72 hrs by MTT assay
[7] = Homo sapiens, PC-3, 72 h, read-out: IC50

Row | Compound | IC50 [1] [µM] | IC50 [2] [µM] | IC50 [3] [µM] | IC50 [4, 7] [µM] | IC50 [5] [µM] | IC50 ([4]; pc-3) | Activity [6]
1 | COc1cc(/C=C/C(=O)CC(=O)/C=C/c2ccc(O)c(OC)c2)ccc1O [CURCUMIN] | 8.5 | 18.3 | 6.1 | 16.8 |  |  | 
2 | CC1=C(/C=C/C(=O)/C(=C\c2ccc(O)cc2)C(=O)/C=C/c2ccc(O)cc2)C(C)(C)CCC1 | 4.5 | 4.7 | 4 | 6.7 | 4.7 |  | 
3 | COc1cc(/C=C/C(O)=C/C(=O)/C=C/C2=C(C)CCCC2(C)C)cc(OC)c1OC | 21.4 | 17.1 | 11.9 | > 50 |  |  | 
4 | COc1cc(/C=C/C(O)=C/C(=O)/C=C/C2=C(C)CCCC2(C)C)ccc1O | 20.6 | 10.6 | 44.3 | 15.8 |  |  | 
5 | COc1ccc(/C=C/C(O)=C/C(=O)/C=C/C2=C(C)CCCC2(C)C)cc1O | 25.9 |  | 23.1 | 38.3 |  |  | 
6 | CC(=O)/C=C/C1=C(C)CCCC1(C)C [BETA-IONONE] | 151 |  |  |  |  | Not Active | inactive
7 | COc1cc(/C=C/C(O)=C/C(=O)/C=C/C2=C(C)CCCC2(C)C)cc(OC)c1O | 6.2 | 12.2 | 9.8 | 26.7 |  |  | 
8 | CCOc1ccc(/C=C(\C(=O)/C=C/C2=C(C)CCCC2(C)C)C(=O)/C=C/c2ccc(OCC)c(OCC)c2)cc1OCC | 14.9 | 9.3 | 4.5 | 14.1 | 6.8 |  | 
9 | CCn1c2ccccc2c2cc(/C=C(\C(=O)/C=C/C3=C(C)CCCC3(C)C)C(=O)/C=C/c3ccc(O)c(OC)c3)ccc21 | 2.3 | 2.4 | 2.3 | 7 | 8.1 |  | 
10 | COc1ccc(/C=C/C(O)=C/C(=O)/C=C/C2=C(C)CCCC2(C)C)cn1 | 25.1 |  |  | 52.2 |  |  | 
11 | COc1cc(/C=C(\C(=O)/C=C/C2=C(C)CCCC2(C)C)C(=O)/C=C/c2cc(OC)c(O)c(OC)c2)cc(OC)c1O | 8.7 | 17.6 | 8.5 | 12.5 | 15.3 |  | 
12 | COc1cc(/C=C/C(=O)/C(=C/c2ccc3ccccc3n2)C(=O)/C=C/C2=C(C)CCCC2(C)C)ccc1O | 8.5 | 5.1 | 5.3 | 15.2 |  |  | 
